The values that follow come from patent US20120157471A1, “BENZIMIDAZOLE DERIVATIVES” (PFIZER INC., priority 2009, published 2012).

In assay [1] the target is T1, human Smo (amino acids 181-787) (Homo sapiens, UniProt Q99835).
T1 construct: expressed in transfected cells; membrane preparation
Description: Smo radioligand competition binding assay (displacement of 3H-PF-03451358 from HEK293 membranes). The conditions noted are these: for inhibition at 0.05 µM: 0.05 μM test compound, displacement of 3H-PF-03451358, read-out: SMO % inh. @ 0.05 μM; for IC50: radioligand competition binding. How it is done: Membranes were prepared from a stable cell line created in HEK293FlpIn-TetR cells (Invitrogen) using FIp recombinase-mediated insertion of the pSecTag-FRT/V5-His vector containing a cDNA encoding amino acids 181-787 of human Smo fused to the murine lgk leader sequence to produce a cell surface expressed Smo 181-781 protein. Hygromycin-resistant clones were obtained and stained for LacZ expression (no expression indicates a correct knock-in of my fusion cDNA). LacZ-negative cells were analyzed for binding tritiated Smo antagonist PF-03451358. For membrane preparation, the HEK293 cells expressing Smo 181-781 were grown to 90% confluence in nine to fifteen 245 mm×245 mm×22 mm dishes, washed with Dulbecco's PBS (15 ml per dish) and harvested via scraping in 10 ml of DPBS. The cells were collected and centrifuged at 1500 rpm (400×g) for 10 min at 4° C. The cell pellets were re-suspended in 40 ml of cold DPBS and washed by centrifugation at 2300 rpm (950×g max) for 10 minutes at 4° C. The supernatant was aspirated and the cell pellet was snap frozen in a methanol/dry ice bath and stored at −70° C. For membrane preparation, 15 ml of Membrane Preparation Buffer (50 mM Tris-HCl pH 7.5, 250 mM sucrose with Roche complete protease cocktail tablets) is added to the tube containing the cell pellet, then cells are rapidly thawed, and homogenized using an Ultra-Turrax T8 (IKA Labortechnik) set on “6” for 15 seconds for 5-6 times in icy water bath. This homogenate was diluted up to 50 ml using Membrane Preparation Buffer and centrifuged at 35,000 rpm in a Beckman Ti45 rotor (140,000×g) for 35 minutes at 4° C. followed by aspiration of the supernatant and re-suspension of the pellet in 5 ml of Assay Buffer (50 mM Tris-HCl pH 7.5, 100 mM NaCl, 25 mM MgCl2, 1 mM EDTA, and 0.1% protease free bovine serum albumin). The re-suspended pellet is then homogenized in a glass tissue grinder. The re-suspended membranes are aliquoted (0.5 ml aliquots), snap frozen and stored at −70° C. Total protein in the membrane preparation is determined using the Pierce BCA protein assay (Pierce Chemical).
For the binding competition assay, 100 μl of Assay Buffer is added to all the wells of a 96 well GF/B filter plate (Millipore MultiScreen-HTS-FB cat# MSFBN6B50) for 10 minutes to pre-wet the filter prior to evacuation of the buffer (8 inches Hg for 8 seconds). To the pre-wet wells is added: 20 μl of Assay Buffer, 10 μl diluted test agent, 20 μl of ^3H-PF-3451358 (15 nM stock solution), and 50 μl of membrane preparation (40 μg total protein per well). The plates are sealed and mixed at room temperature for 5 min, incubated at room temperature for 2 hours, then washed 5 times with 100 μl/each of wash buffer and vacuum dried for 8 seconds at 8 inch Hg. The plate is then dried for one hour in a 60° C. oven prior to the addition of 45 μl of Microscint 20 (Packard, #6013621) to each well and incubation at RT for 30 minutes to 1 hour. The plate is counted in a TopCount scintillation counter (Perkin Elmer).
Data analysis uses Excel for % Inhibition and Graphpad Prism for IC50 calculation. Total binding (TB, in the absence of inhibitors)=average of ^3H PF-03451358 3 nM+SMO membrane (40 μg/wells (approx 5000-7000 CPM). Non-specific binding (NSB)=average of ^3H PF-03451358 (3 nM)+cold PF-03451358 (30 μM)+SMO membrane (approx 600-1200 CPM). Specific binding (SB)=(total binding−non-specific binding). % Inhibition=[1−(compound Specific binding/control Specific binding)]×100%. IC50 is calculated by fitting the data to the four parameter sigmoidal dose-response curve (variable slope) Y=Bottom+(Top-Bottom)/(1+10̂((LogEC50−X)*HillSlope)). X is the logarithm of the inhibitor concentration. Y is the response; Y starts at Bottom and goes to Top with a sigmoid shape.

For a further assay, the system named is Gli-Luc/MEF cells (Smo). Description: Gli-Luc/MEF assay (Shh-stimulated luciferase reporter under the Gli response element). In kind it is cell-based, mouse. The conditions noted are these: Mus musculus, MEF, 48 h. As for the experimental part: The Gli-Luc/MEF cells obtained from Gli-Luc transgenic mice (Pfizer CoE, Genetically Modified Mice) contain a luciferase reporter gene under the control of the Gli response element. Luciferase activity stimulated with Sonic hedgehog ligand was inhibited by Smo inhibitors, and IC50 was subsequently calculated.
Plates were incubated at 37° C. and 5% CO2 overnight. On day two, cells were dosed with test compounds at a final concentration ranging from […] to 50 μM at a 3-time series dilution. Immediately after dosing cells with compounds, recombinant mouse sonic hedgehog (Shh, R&D Systems 464-SH) was added to a final concentration of 2 μg/mL. The cells were incubated with compounds and Shh for 48 hours at 37° C. and 5% CO2. Luciferase assays were conducted on Day 4 using the Bright-Glo Luciferase assay system (Promega E2620) according to Promega's protocol. Briefly, Bright-Glo luciferase reagent was made up and 25 uL were added to each well of the 384-well plate containing media. Plates were kept at room temperature for 5 minutes, and then read on an Envision Luminescence plate reader (Perkin-Elmer). IC50 of the inhibition was calculated by using GraphPad Prism.
On the technique in general: A reporter such as luciferase makes a cellular process visible.

T1 sequence (Q99835 181-787): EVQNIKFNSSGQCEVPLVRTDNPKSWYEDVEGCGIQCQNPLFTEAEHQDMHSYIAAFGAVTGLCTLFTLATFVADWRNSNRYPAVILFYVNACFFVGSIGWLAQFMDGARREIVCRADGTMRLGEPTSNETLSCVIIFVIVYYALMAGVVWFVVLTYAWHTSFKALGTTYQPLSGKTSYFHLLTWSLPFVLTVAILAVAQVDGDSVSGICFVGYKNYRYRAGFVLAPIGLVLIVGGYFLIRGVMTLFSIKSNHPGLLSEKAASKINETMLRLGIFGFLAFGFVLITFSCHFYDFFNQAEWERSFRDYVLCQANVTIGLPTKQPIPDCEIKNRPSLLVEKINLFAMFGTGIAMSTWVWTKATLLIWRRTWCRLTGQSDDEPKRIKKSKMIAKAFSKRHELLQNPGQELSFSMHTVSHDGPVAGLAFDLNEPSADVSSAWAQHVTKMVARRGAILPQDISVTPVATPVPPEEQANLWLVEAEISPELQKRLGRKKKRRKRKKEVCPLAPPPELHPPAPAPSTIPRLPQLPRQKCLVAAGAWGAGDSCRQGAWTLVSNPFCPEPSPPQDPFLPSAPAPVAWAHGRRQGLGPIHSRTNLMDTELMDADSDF

By IC50 is commonly meant the concentration needed to halve the response being measured. For the compound `Cn1c(-c2cc(N3C[C@@H]4[C@H](C3)[C@H]4NS(C)(=O)=O)ncc2Cl)nc2ccccc21` [Example A-8, N-{(1R,5S,6S)-3-[5-chloro-4-(1-methyl-1H-benzimidazol-2-yl)pyridin-2-yl]-3-azabicyclo[3.1.0]hex-6-yl}methanesulfonamide], in assay [1], the inhibition at 0.05 µM amounted to 94% and the IC50 amounted to 64 nM. In the assay on Gli-Luc/MEF cells (Smo), it took 15 nM to reach half-maximal inhibition (IC50).
For `CC(=O)N[C@H]1[C@@H]2CN(c3cc(-c4nc5ccccc5n4C)c(Cl)cn3)C[C@@H]21` [Example A-9, N-{(1R,5S,6S)-3-[5-chloro-4-(1-methyl-1H-benzimidazol-2-yl)pyridin-2-yl]-3-azabicyclo[3.1.0]hex-6-yl}acetamide], in that order: 74%, 189 nM and 23 nM.
For `Cn1c(-c2ccnc(N3CCC(S(C)(=O)=O)CC3)c2)nc2ccccc21` [Example A-10, 1-methyl-2-{2-[4-(methylsulfonyl)piperidin-1-yl]pyridin-4-yl}-1H-benzimidazole], in that order: 80%, 95 nM and 38 nM.
For `Cn1c(-c2ccnc(N3CCS(=O)(=O)CC3)c2)nc2ccccc21` [Example A-11, 2-[2-(1,1-dioxidothiomorpholin-4-yl)pyridin-4-yl]-1-methyl-1H-benzimidazole], in that order: 52%, 486 nM and 275 nM.
Turning to `Cn1c(-c2ccnc(N3CCC(CS(C)(=O)=O)CC3)c2)nc2ccccc21` [Example A-12, 1-methyl-2-(2-{4-[(methylsulfonyl)methyl]piperidin-1-yl}pyridin-4-yl)-1H-benzimidazole], in assay [1], the inhibition at 0.05 µM was found to be 82% and the IC50 came out at 48 nM. In the assay on Gli-Luc/MEF cells (Smo), this compound came in with an IC50 of 23 nM.
For `Cn1c(-c2ccnc(N3CCCNCC3)c2)nc2ccccc21` [Example A-13, 2-[2-(1,4-diazepan-1-yl)pyridin-4-yl]-1-methyl-1H-benzimidazole], in that order: 66%, 423 nM and 89 nM.
For `Cn1c(-c2ccnc(N3CCCN(S(C)(=O)=O)CC3)c2)nc2ccccc21` [Example A-14, 1-methyl-2-{2-[4-(methylsulfonyl)-1,4-diazepan-1-yl]pyridin-4-yl}-1H-benzimidazole], in that order: 84%, 31 nM and 84 nM.
For `Cn1c(-c2ccnc(N3CCC(N4CCOC4=O)CC3)c2)nc2ccccc21` [Example A-15, 3-{1-[4-(1-methyl-1H-benzimidazol-2-yl)pyridin-2-yl]piperidin-4-yl}-1,3-oxazolidin-2-one], in that order: 53%, 404 nM and 180 nM.
Take `CC(=O)NC1CCN(c2cc(-c3nc4ccccc4n3C)ccn2)CC1` [Example A-16, N-{1-[4-(1-methyl-1H-benzimidazol-2-yl)pyridin-2-yl]piperidin-4-yl}acetamide]: in assay [1], the inhibition at 0.05 µM was 81% and the IC50 came out at 102 nM. In the assay with Gli-Luc/MEF cells (Smo), this compound yielded an IC50 of 65 nM.
For `Cn1c(-c2ccnc(N3CCC(NS(C)(=O)=O)CC3)c2)nc2ccccc21` [Example A-17, N-{1-[4-(1-methyl-1H-benzimidazol-2-yl)pyridin-2-yl]piperidin-4-yl}methanesulfonamide], in that order: 99%, 13 nM and 6 nM.
With `Cn1c(-c2ccnc(N3CCC(O)CC3)c2)nc2ccccc21` [Example A-18, 1-[4-(1-methyl-1H-benzimidazol-2-yl)pyridin-2-yl]piperidin-4-ol], in assay [1], the inhibition at 0.05 µM was 79% and the IC50 was found to be 75 nM. In the assay on Gli-Luc/MEF cells (Smo), this compound showed an IC50 of 115 nM.
For `COC(=O)NC1CCN(c2cc(-c3nc4ccccc4n3C)ccn2)CC1` [Example A-19, methyl {1-[4-(1-methyl-1H-benzimidazol-2-yl)pyridin-2-yl]piperidin-4-yl}carbamate], in that order: 84%, 25 nM and 15 nM.
For `Cn1c(-c2cc(N3CCC(S(C)(=O)=O)CC3)ncc2Cl)nc2ccccc21` [Example A-20, 2-{5-chloro-2-[4-(methylsulfonyl)piperidin-1-yl]pyridin-4-yl}-1-methyl-1H-benzimidazole], in that order: 87%, 19 nM and 8 nM.
For `Cn1c(-c2ccnc(N3CCN(S(C)(=O)=O)CC3)c2)nc2ccccc21` [Example A-21, 1-methyl-2-{2-[4-(methylsulfonyl)piperazin-1-yl]pyridin-4-yl}-1H-benzimidazole], in that order: 78%, 152 nM and 90 nM.
As for `CC(=O)NC1CCN(c2cc(-c3nc4ccccc4n3C)c(Cl)cn2)CC1` [Example A-22, N-{1-[5-chloro-4-(1-methyl-1H-benzimidazol-2-yl)pyridin-2-yl]piperidin-4-yl}acetamide], the inhibition at 0.05 µM in assay [1] was 94%. The IC50 is 11 nM in assay [1] and 6 nM in the assay with Gli-Luc/MEF cells (Smo).
For `Cn1c(-c2cc(N3CCNCC3)ncc2Cl)nc2ccccc21` [Example A-23, 2-(5-chloro-2-piperazin-1-ylpyridin-4-yl)-1-methyl-1H-benzimidazole], in that order: 88%, 56 nM and 31 nM.
For `Cn1c(-c2cc(N3CCC(S(C)(=O)=O)C3)ncc2Cl)nc2ccccc21` (stereo not drawn) [Example A-24, 2-{5-chloro-2-[3-(methylsulfonyl)pyrrolidin-1-yl]pyridin-4-yl}-1-methyl-1H-benzimidazole], in that order: 82%, 54 nM and 20 nM.
For `Cn1c(-c2cc(N3CCC(O)CC3)ncc2Cl)nc2ccccc21` [Example A-25, 1-[5-chloro-4-(1-methyl-1H-benzimidazol-2-yl)pyridin-2-yl]piperidin-4-ol], in that order: 91%, 8 nM and 7 nM.
Consider `Cn1c(-c2cc(N3CC[C@@H](O)C3)ncc2Cl)nc2ccccc21` [Example A-26, (3R)-1-[5-chloro-4-(1-methyl-1H-benzimidazol-2-yl)pyridin-2-yl]pyrrolidin-3-ol], for which, in assay [1], the inhibition at 0.05 µM worked out at 64% and the IC50 was found to be 166 nM. In addition, the concentration for half-maximal inhibition (IC50) in the assay with Gli-Luc/MEF cells (Smo) was 49 nM.
